# Measurements as given in patent US20210078988A1, “MODULATORS OF INDOLEAMINE 2,3-DIOXYGENASE” (GLAXOSMITHKLINE INTELLECTUAL PROPERTY DEVELOPMENT LIMITED, priority 2017, published 2021).
# Molecular target: T1, indoleamine 2, 3-dioxygenase (IDO1) (Homo sapiens, UniProt P14902)
# T1 construct: human peripheral blood mononuclear cells (PBMC) (PB003F; host or cells: human PBMC stimulated with IFN-gamma and LPS
# Assay: PBMC IDO1 assay (kynurenine detection via mass spectrometry)
# Assay type: cell-based
# Conditions: human PBMC stimulated with IFN-γ and LPS, 2 days, kynurenine by mass spectrometry; read-out: IDO1 PBMC pIC50 (converted)
# Description: Compounds of the present invention were tested via high-throughput cellular assays utilizing detection of kynurenine via mass spectrometry and cytotoxicity as end-points. For the mass spectrometry and cytotoxicity assays, human peripheral blood mononuclear cells (PBMC) (PB003F; AIICells®, Alameda, Calif.) were stimulated with human interferon-γ (IFN-γ) (Sigma-Aldrich Corporation, St. Louis, Mo.) and lipopolysaccharide from Salmonella minnesota (LPS) (Invivogen, San Diego, Calif.) to induce the expression of indoleamine 2, 3-dioxygenase (IDO1). Compounds with IDO1 inhibitory properties decreased the amount of kynurenine produced by the cells via the tryptophan catabolic pathway. Cellular toxicity due to the effect of compound treatment was measured using CellTiter-Glo® reagent (CTG) (Promega Corporation, Madison, Wis.), which is based on luminescent detection of ATP, an indicator of metabolically active cells.
# In preparation for the assays, test compounds were serially diluted 3-fold in DMSO from a typical top concentration of 5 mM and plated at 0.5 μL in 384-well, polystyrene, clear bottom, tissue culture treated plates with lids (Greiner Bio-One, Kremsmunster, Austria) to generate 11-point dose response curves. Low control wells (0% kynurenine or 100% cytotoxicity) contained either 0.5 μL of DMSO in the presence of unstimulated (-IFN-γ/-LPS) PBMCs for the mass spectrometry assay or 0.5 μL of DMSO in the absence of cells for the cytotoxicity assay, and high control wells (100% kynurenine or 0% cytotoxicity) contained 0.5 μL of DMSO in the presence of stimulated (+IFN-γ/+LPS) PBMCs for both the mass spectrometry and cytotoxicity assays.
# Frozen stocks of PBMCs were washed and recovered in RPMI 1640 medium (Thermo Fisher Scientific, Inc., Waltham, Mass.) supplemented with 10% v/v heat-inactivated fetal bovine serum (FBS) (Thermo Fisher Scientific, Inc., Waltham, Mass.), and 1× penicillin-streptomycin antibiotic solution (Thermo Fisher Scientific, Inc., Waltham, Mass.). The cells were diluted to 1,000,000 cells/mL in the supplemented RPMI 1640 medium. 50 μL of either the cell suspension, for the mass spectrometry assay, or medium alone, for the cytotoxicity assay, were added to the low control wells, on the previously prepared 384-well compound plates, resulting in 50,000 cells/well or 0 cells/well respectively. IFN-γ and LPS were added to the remaining cell suspension at final concentrations of 100 ng/ml and 50 ng/ml respectively, and 50 μL of the stimulated cells were added to all remaining wells on the 384-well compound plates. The plates, with lids, were then placed in a 37° C., 5% CO2 humidified incubator for 2 days.
# Following incubation, the 384-well plates were removed from the incubator and allowed to equilibrate to room temperature for 30 minutes. For the cytotoxicity assay, CellTiter-Glo® was prepared according to the manufacturer's instructions, and 40 μL were added to each plate well. After a twenty minute incubation at room temperature, luminescence was read on an EnVision® Multilabel Reader (PerkinElmer Inc., Waltham, Mass.). For the mass spectrometry assay, 10 μL of supernatant from each well of the compound-treated plates were added to 40 μL of acetonitrile, containing 10 μM of an internal standard for normalization, in 384-well, polypropylene, V-bottom plates (Greiner Bio-One, Kremsmunster, Austria) to extract the organic analytes. Following centrifugation at 2000 rpm for 10 minutes, 10 μL from each well of the acetonitrile extraction plates were added to 90 μL of sterile, distilled H2O in 384-well, polypropylene, V-bottom plates for analysis of kynurenine and the internal standard on the RapidFire 300 (Agilent Technologies, Santa Clara, Calif.) and 4000 QTRAP MS (SCIEX, Framingham, Mass.). MS data were integrated using Agilent Technologies' RapidFire Integrator software, and data were normalized for analysis as a ratio of kynurenine to the internal standard. […]
# T1 sequence (P14902 whole entry): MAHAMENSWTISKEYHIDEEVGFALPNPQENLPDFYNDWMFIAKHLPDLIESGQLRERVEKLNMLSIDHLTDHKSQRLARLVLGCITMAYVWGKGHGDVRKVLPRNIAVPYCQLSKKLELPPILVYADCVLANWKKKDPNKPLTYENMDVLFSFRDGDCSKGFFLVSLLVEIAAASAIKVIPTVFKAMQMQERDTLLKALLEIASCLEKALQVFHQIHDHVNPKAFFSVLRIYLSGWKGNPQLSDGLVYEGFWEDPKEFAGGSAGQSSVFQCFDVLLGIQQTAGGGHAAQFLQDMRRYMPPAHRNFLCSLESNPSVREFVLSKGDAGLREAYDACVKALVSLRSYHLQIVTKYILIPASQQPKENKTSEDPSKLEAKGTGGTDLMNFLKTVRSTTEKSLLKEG
row,Compound,IC50
1,"COc1ccc([C@H](CC2CCN(C(=O)C(F)(F)c3ccccc3)CC2)NC(=O)c2ccc(Cl)s2)cn1 [Example 43, (S)-5-chloro-N-(2-(1-(2,2-difluoro-2-phenylacetyl)piperidin-4-yl)-1-(6-methoxypyridin-3-yl)ethyl)thiophene-2-carboxamide]",1 nM
2,"CCC(CC)c1nc(C(CC2CCN(C(=O)OC(C)(C)C)CC2)NC(=O)c2ccc(Cl)s2)no1 (stereo not drawn) [Example 47, tert-butyl 4-(2-(5-chlorothiophene-2-carboxamido)-2-(5-(pentan-3-yl)-1,2,4-oxadiazol-3-yl)ethyl)piperidine-1-carboxylate]",3.98 nM
3,"CCc1ccc(C(=O)NC(CC2CCN(C(=O)OC(C)(C)C)CC2)C(C)C)s1 (stereo not drawn) [Example 49, tert-butyl 4-(2-(5-ethylthiophene-2-carboxamido)-3-methylbutyl)piperidine-1-carboxylate]",6.31 nM
4,"CCN(c1nnc(C(CC2CCN(C(=O)OC(C)(C)C)CC2)NC(=O)c2ccc(C)s2)o1)C1CC1 (stereo not drawn) [Example 50, tert-butyl 4-(2-(5-(cyclopropyl(ethyl)amino)-1,3,4-oxadiazol-2-yl)-2-(5-methylthiophene-2-carboxamido)ethyl)piperidine-1-carboxylate]",6.31 nM
5,"Cc1ccc(C(=O)NC(CC2CCN(C(=O)Oc3ccccc3)CC2)c2ccccc2)s1 (stereo not drawn) [Example 51, phenyl 4-(2-(5-methylthiophene-2-carboxamido)-2-phenylethyl)piperidine-1-carboxylate]",7.94 nM
6,"CCN(C)c1nnc(C(CC2CCN(C(=O)OC(C)(C)C)CC2)NC(=O)c2ccc(C)s2)o1 (stereo not drawn) [Example 52, tert-butyl 4-(2-(5-(ethyl(methyl)amino)-1,3,4-oxadiazol-2-yl)-2-(5-methylthiophene-2-carboxamido)ethyl)piperidine-1-carboxylate]",10 nM
7,"CCN(CC)c1nnc(C(CC2CCN(C(=O)Oc3ccccc3)CC2)NC(=O)c2ccc(Cl)s2)o1 (stereo not drawn) [Example 53, phenyl 4-(2-(5-chlorothiophene-2-carboxamido)-2-(5-(diethylamino)-1,3,4-oxadiazol-2-yl)ethyl)piperidine-1-carboxylate]",3.16 nM
8,"COc1ccc(C(CC2CCN(C(=O)OC(C)C)CC2)NC(=O)c2ccc(F)cc2)cn1 (stereo not drawn) [Example 55, isopropyl 4-(2-(4-fluorobenzamido)-2-(6-methoxypyridin-3-yl)ethyl)piperidine-1-carboxylate]",12.6 nM
9,"CCc1ccc(C(=O)NC(CC(C)C)CC2CCN(C(=O)OC(C)(C)C)CC2)s1 (stereo not drawn) [Example 60, tert-butyl 4-(2-(5-ethylthiophene-2-carboxamido)-4-methylpentyl)piperidine-1-carboxylate]",12.6 nM
10,"CC(C)(C)OC(=O)N1CCC(C[C@H](NC(=O)c2ccc(Br)cc2)C2CC2)CC1 [Example 63, (S)-tert-butyl 4-(2-(4-bromobenzamido)-2-cyclopropylethyl)piperidine-1-carboxylate]",12.6 nM
11,"CC(C)(C)OC(=O)N1CCC(CC(NC(=O)c2ccc(Cl)s2)C2CCCCC2)CC1 (stereo not drawn) [Example 64, tert-butyl 4-(2-(5-chlorothiophene-2-carboxamido)-2-cyclohexylethyl)piperidine-1-carboxylate]",12.6 nM
12,"CCOC(=O)N1CCC(C[C@H](NC(=O)c2ccc(CC)s2)c2ccccc2)CC1 [Example 66, (S)-ethyl 4-(2-(5-ethylthiophene-2-carboxamido)-2-phenylethyl)piperidine-1-carboxylate]",12.6 nM
13,"CC(C)CC(CC1CCN(C(=O)Oc2ccccc2)CC1)NC(=O)c1ccc(Cl)cc1 (stereo not drawn) [Example 67, phenyl 4-(2-(4-chlorobenzamido)-4-methylpentyl)piperidine-1-carboxylate]",12.6 nM
14,"Cc1ccc(C(=O)NC(CC2CCN(C(=O)OC(C)(C)C)CC2)c2ccccc2)s1 (stereo not drawn) [Example 69, tert-butyl 4-(2-(5-methylthiophene-2-carboxamido)-2-phenylethyl)piperidine-1-carboxylate]",15.8 nM

# Further lines, results first:
row,IC50,Compound
1,3.16 nM,"CCN(CC)c1nnc(C(CC2CCN(C(=O)OC(C)(C)C)CC2)NC(=O)c2ccc(Cl)s2)o1 (stereo not drawn) [Example 44, tert-butyl 4-(2-(5-chlorothiophene-2-carboxamido)-2-(5-(diethylamino)-1,3,4-oxadiazol-2-yl)ethyl)piperidine-1-carboxylate]"
2,3.16 nM,"CCOC(=O)N1CCC(CC(NC(=O)c2ccc(Cl)s2)c2nnc(N(CC)CC)o2)CC1 (stereo not drawn) [Example 45, ethyl 4-(2-(5-chlorothiophene-2-carboxamido)-2-(5-(diethylamino)-1,3,4-oxadiazol-2-yl)ethyl)piperidine-1-carboxylate]"
3,3.98 nM,"Cc1ccc(C(=O)NC(CC2CCN(C(=O)OC(C)(C)C)CC2)C(C)C)s1 (stereo not drawn) [Example 46, tert-butyl 4-(3-methyl-2-(5-methylthiophene-2-carboxamido)butyl)piperidine-1-carboxylate]"
4,3.98 nM,"CCN(CC)c1nnc(C(CC2CCN(C(=O)OC(C)(C)C)CC2)NC(=O)c2ccc(C)s2)o1 (stereo not drawn) [Example 48, tert-butyl 4-(2-(5-(diethylamino)-1,3,4-oxadiazol-2-yl)-2-(5-methylthiophene-2-carboxamido)ethyl)piperidine-1-carboxylate]"
5,12.6 nM,"COc1ccc(C(CC2CCN(C(=O)OC(C)(C)C)CC2)NC(=O)c2ccc(F)cc2)cn1 (stereo not drawn) [Example 54, tert-butyl 4-(2-(4-fluorobenzamido)-2-(6-methoxypyridin-3-yl)ethyl)piperidine-1-carboxylate]"
6,12.6 nM,"COc1ccc(C(CC2CCN(C(=O)OCC(C)C)CC2)NC(=O)c2ccc(F)cc2)cn1 (stereo not drawn) [Example 56, isobutyl 4-(2-(4-fluorobenzamido)-2-(6-methoxypyridin-3-yl)ethyl)piperidine-1-carboxylate]"
7,12.6 nM,"CC(C)(C)OC(=O)N1CCC(CC(NC(=O)c2ccc(Br)cc2)c2ccccc2)CC1 (stereo not drawn) [Example 57, tert-butyl 4-(2-(4-bromobenzamido)-2-phenylethyl)piperidine-1-carboxylate]"
8,12.6 nM,"CC(C)(C)OC(=O)N1CCC(CC(NC(=O)c2ccc(F)s2)c2ccccc2)CC1 (stereo not drawn) [Example 58, tert-butyl 4-(2-(5-fluorothiophene-2-carboxamido)-2-phenylethyl)piperidine-1-carboxylate]"
9,12.6 nM,"Cc1ccc(C(=O)NC(CC2CCN(C(=O)OC(C)(C)C)CC2)C2CCCC2)s1 (stereo not drawn) [Example 59, tert-butyl 4-(2-cyclopentyl-2-(5-methylthiophene-2-carboxamido)ethyl)piperidine-1-carboxylate]"
10,12.6 nM,"O=C(NC(CC1CCN(C(=O)OC2CCC2)CC1)c1ccccc1)c1ccc(Cl)cc1 (stereo not drawn) [Example 61, cyclobutyl 4-(2-(4-chlorobenzamido)-2-phenylethyl)piperidine-1-carboxylate]"
11,12.6 nM,"C#CCOC(=O)N1CCC(CC(NC(=O)c2ccc(Cl)cc2)c2ccccc2)CC1 (stereo not drawn) [Example 62, prop-2-yn-1-yl 4-(2-(4-chlorobenzamido)-2-phenylethyl)piperidine-1-carboxylate]"
12,12.6 nM,"CC(C)(C)OC(=O)N1CCC(C[C@H](NC(=O)c2ccc(Cl)cc2)c2ccccc2)CC1 [Example 65, (S)-tert-butyl 4-(2-(4-chlorobenzamido)-2-phenylethyl)piperidine-1-carboxylate]"
13,15.8 nM,"CC(C)(C)OC(=O)N1CCC(CC(NC(=O)c2ccc(Cl)cc2)c2ccccc2)CC1 (stereo not drawn) [Example 68, tert-butyl 4-(2-(4-chlorobenzamido)-2-phenylethyl)piperidine-1-carboxylate]"
